# Measured values from PubChem BioAssay (NCI).
#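 Values below derive from 48-hour exposures of cells grown in 96-well plates, with endpoints linearly interpolated between the two concentrations bracketing the appropriate inhibition level. Here, GI50 denotes the concentration required for 50% inhibition of growth. TGI: total growth inhibition.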
# Columns and labels:
# Experiment in all cases: NCI anticancer screen, dose series, 48 h
# U251 CNS = test system: U251 CNS
# 786-0 renal = test system: 786-0 renal
# SK-MEL-5 melanoma = test system: SK-MEL-5 melanoma
# CCRF-CEM leukemia = test system: CCRF-CEM leukemia
# MCF7 breast = test system: MCF7 breast
# PC-3 prostate = test system: PC-3 prostate
# OVCAR-4 ovarian = test system: OVCAR-4 ovarian
# SF-268 CNS = test system: SF-268 CNS
# MOLT-4 leukemia = test system: MOLT-4 leukemia
# HCT-116 colon = test system: HCT-116 colon
# TK-10 renal = test system: TK-10 renal
# MDA-MB-468 breast = test system: MDA-MB-468 breast
# COLO 205 colon = test system: COLO 205 colon
# UACC-257 melanoma = test system: UACC-257 melanoma
# DU-145 prostate = test system: DU-145 prostate
# MDA-MB-435 = test system: MDA-MB-435
# HCC-2998 colon = test system: HCC-2998 colon
# SK-OV-3 ovarian = test system: SK-OV-3 ovarian
# NCI-H522 lung = test system: NCI-H522 lung
# K-562 leukemia = test system: K-562 leukemia
# MDA-MB-231 breast = test system: MDA-MB-231 breast
# NCI/ADR-RES ovarian = test system: NCI/ADR-RES ovarian
# SN12C renal = test system: SN12C renal
# UO-31 renal = test system: UO-31 renal
# SK-MEL-2 melanoma = test system: SK-MEL-2 melanoma
# CAKI-1 renal = test system: CAKI-1 renal
# SF-295 CNS = test system: SF-295 CNS
# HS 578T breast = test system: HS 578T breast
# IGROV1 ovarian = test system: IGROV1 ovarian
# A498 renal = test system: A498 renal
# RXF 393 renal = test system: RXF 393 renal
# LOX IMVI melanoma = test system: LOX IMVI melanoma
# NCI-H226 lung = test system: NCI-H226 lung
# ACHN renal = test system: ACHN renal
# SR leukemia = test system: SR leukemia
# NCI-H23 lung = test system: NCI-H23 lung
# NCI-H460 lung = test system: NCI-H460 lung
# SF-539 CNS = test system: SF-539 CNS
# KM12 colon = test system: KM12 colon
# EKVX NSCLC = test system: EKVX NSCLC
# MALME-3M melanoma = test system: MALME-3M melanoma
# HOP-92 NSCLC = test system: HOP-92 NSCLC
# OVCAR-3 ovarian = test system: OVCAR-3 ovarian
# A549 NSCLC = test system: A549 NSCLC
# SNB-19 CNS = test system: SNB-19 CNS
# HT29 colon = test system: HT29 colon
# M14 melanoma = test system: M14 melanoma
# OVCAR-8 ovarian = test system: OVCAR-8 ovarian
# HL-60(TB) leukemia = test system: HL-60(TB) leukemia
# SW-620 colon = test system: SW-620 colon
# BT-549 breast = test system: BT-549 breast
# OVCAR-5 ovarian = test system: OVCAR-5 ovarian
# HOP-62 NSCLC = test system: HOP-62 NSCLC
# UACC-62 melanoma = test system: UACC-62 melanoma
# HCT-15 colon = test system: HCT-15 colon
# T-47D breast = test system: T-47D breast
# SK-MEL-28 melanoma = test system: SK-MEL-28 melanoma
# SNB-75 CNS = test system: SNB-75 CNS
structure (smiles),measurement,setting,value
O=C(NCCCCC(c1ccc(F)cc1)c1ccc(F)cc1)Nc1ccc([N+](=O)[O-])c(C(F)(F)F)c1,GI50,U251 CNS,2.2 µM
same,TGI,U251 CNS,5.98 µM
same,GI50,786-0 renal,2.26 µM
same,TGI,786-0 renal,8.86 µM
same,GI50,SK-MEL-5 melanoma,1.59 µM
same,TGI,SK-MEL-5 melanoma,2.97 µM
same,GI50,CCRF-CEM leukemia,0.674 µM
same,TGI,CCRF-CEM leukemia,8.27 µM
same,GI50,MCF7 breast,2.14 µM
same,TGI,MCF7 breast,10.1 µM
same,GI50,PC-3 prostate,0.415 µM
same,TGI,PC-3 prostate,8.72 µM
same,GI50,OVCAR-4 ovarian,2.81 µM
same,TGI,OVCAR-4 ovarian,15.8 µM
same,GI50,SF-268 CNS,2.92 µM
same,TGI,SF-268 CNS,12.4 µM
same,GI50,MOLT-4 leukemia,2.81 µM
same,TGI,MOLT-4 leukemia,> 100 µM
same,GI50,HCT-116 colon,0.521 µM
same,TGI,HCT-116 colon,2.81 µM
same,GI50,TK-10 renal,2.94 µM
same,TGI,TK-10 renal,10.9 µM
same,GI50,MDA-MB-468 breast,0.559 µM
same,TGI,MDA-MB-468 breast,3.08 µM
same,GI50,COLO 205 colon,1.73 µM
same,TGI,COLO 205 colon,3.24 µM
same,GI50,UACC-257 melanoma,2.48 µM
same,TGI,UACC-257 melanoma,7.97 µM
same,GI50,DU-145 prostate,3.53 µM
same,TGI,DU-145 prostate,15.7 µM
same,GI50,MDA-MB-435,2.15 µM
same,TGI,MDA-MB-435,7.58 µM
same,GI50,HCC-2998 colon,2.61 µM
same,TGI,HCC-2998 colon,11.5 µM
same,GI50,SK-OV-3 ovarian,2.26 µM
same,TGI,SK-OV-3 ovarian,6.05 µM
same,GI50,NCI-H522 lung,1.74 µM
same,TGI,NCI-H522 lung,5.17 µM
same,GI50,K-562 leukemia,0.561 µM
same,TGI,K-562 leukemia,> 100 µM
same,GI50,MDA-MB-231 breast,1.82 µM
same,TGI,MDA-MB-231 breast,3.72 µM
same,GI50,NCI/ADR-RES ovarian,2.36 µM
same,TGI,NCI/ADR-RES ovarian,8.68 µM
same,GI50,SN12C renal,1.98 µM
same,TGI,SN12C renal,6.52 µM
same,GI50,UO-31 renal,1.82 µM
same,TGI,UO-31 renal,7.43 µM
same,GI50,SK-MEL-2 melanoma,1.92 µM
same,TGI,SK-MEL-2 melanoma,4.07 µM
same,GI50,CAKI-1 renal,2.07 µM
same,TGI,CAKI-1 renal,6.5 µM
same,GI50,SF-295 CNS,0.972 µM
same,TGI,SF-295 CNS,3.73 µM
same,GI50,HS 578T breast,2.22 µM
same,TGI,HS 578T breast,6.22 µM
same,GI50,IGROV1 ovarian,2.71 µM
same,TGI,IGROV1 ovarian,12.5 µM
same,GI50,A498 renal,1.84 µM
same,TGI,A498 renal,5.51 µM
same,GI50,RXF 393 renal,2.23 µM
same,TGI,RXF 393 renal,6.25 µM
same,GI50,LOX IMVI melanoma,1.69 µM
same,TGI,LOX IMVI melanoma,3.37 µM
same,GI50,NCI-H226 lung,2.16 µM
same,TGI,NCI-H226 lung,6.55 µM
same,GI50,ACHN renal,1.63 µM
same,TGI,ACHN renal,6.81 µM
same,GI50,SR leukemia,2.97 µM
same,TGI,SR leukemia,> 100 µM
same,GI50,NCI-H23 lung,2.27 µM
same,TGI,NCI-H23 lung,8.51 µM
same,GI50,NCI-H460 lung,1.61 µM
same,TGI,NCI-H460 lung,5.54 µM
same,GI50,SF-539 CNS,1.92 µM
same,TGI,SF-539 CNS,4.01 µM
same,GI50,KM12 colon,2.07 µM
same,TGI,KM12 colon,7.77 µM
same,GI50,EKVX NSCLC,2.3 µM
same,TGI,EKVX NSCLC,8.53 µM
same,GI50,MALME-3M melanoma,1.84 µM
same,TGI,MALME-3M melanoma,4.64 µM
same,GI50,HOP-92 NSCLC,1.03 µM
same,TGI,HOP-92 NSCLC,5.11 µM
same,GI50,OVCAR-3 ovarian,1.52 µM
same,TGI,OVCAR-3 ovarian,5.31 µM
same,GI50,A549 NSCLC,3.19 µM
same,TGI,A549 NSCLC,12.6 µM
same,GI50,SNB-19 CNS,2.91 µM
same,TGI,SNB-19 CNS,16.1 µM
same,GI50,HT29 colon,3.22 µM
same,TGI,HT29 colon,13.4 µM
same,GI50,M14 melanoma,2.08 µM
same,TGI,M14 melanoma,6.63 µM
same,GI50,OVCAR-8 ovarian,3.24 µM
same,TGI,OVCAR-8 ovarian,16 µM
same,GI50,HL-60(TB) leukemia,3.19 µM
same,TGI,HL-60(TB) leukemia,> 100 µM
same,GI50,SW-620 colon,2.26 µM
same,TGI,SW-620 colon,10.9 µM
same,GI50,BT-549 breast,1.86 µM
same,TGI,BT-549 breast,4.23 µM
same,GI50,OVCAR-5 ovarian,2.28 µM
same,TGI,OVCAR-5 ovarian,7.89 µM
same,GI50,HOP-62 NSCLC,1.99 µM
same,TGI,HOP-62 NSCLC,4.62 µM
same,GI50,UACC-62 melanoma,1.33 µM
same,TGI,UACC-62 melanoma,2.84 µM
same,GI50,HCT-15 colon,1.8 µM
same,TGI,HCT-15 colon,6.63 µM
same,GI50,T-47D breast,1.85 µM
same,TGI,T-47D breast,6.93 µM
same,GI50,SK-MEL-28 melanoma,3.03 µM
same,TGI,SK-MEL-28 melanoma,11.5 µM
same,GI50,SNB-75 CNS,1.65 µM
same,TGI,SNB-75 CNS,7.64 µM
